Results on one substance are retold here after patent publication US20180271930A1, “METHOD FOR RAISING POULTRY” (priority 2015, published 2018).

The nature of assay [1]: Examination 2-2: breeding performance at 40 days old after GSSG prestarter feed. The assay is classed as in vivo, broiler chicks (Ross 308). To be noted: 0.01% by mass GSSG feed for first 72 h, n = 12. How it is done:
Thereafter, the composition was replaced by an ordinary feed composition of the same type and the chicks were raised until they became 40 days old. […] Two groups, which were a control group and a GSSG addition group (0.01% by mass) were set. In each group, 6 males and 6 females were tested. Chicks received at 0 day old were fed with a test feed composition (initial-phase feed composition) during 72 hours after the receipt. […] The body weight was measured, and the meat yield and feed conversion ratio were determined. As the initial-phase feed composition, the 0.01% by mass GSSG-containing feed composition used in Examination 1 was used in the GSSG addition group, and the feed composition (ME3,100 kcal/kg, CP21) free of GSSG used in Examination 1 was used for the control group. […] An ammonium salt was used as oxidized glutathione (GSSG). The GSSG contained 95.6% by mass of oxidized glutathione, and the content of reduced glutathione mixed therein was 0.1% by mass or less. […] The term “meat yield” refers to a proportion of meat excluding bones and fats with respect to the body weight. The meat yield can be determining by performing slaughtering and butchering, collecting meat alone, and weighing the collected meat.

Assay [2] is described as follows: Examination 4: body weight of chicks raised until 35 days old after feeding GSSG or GSH for 3 days. The assay is classed as in vivo, broiler chicks. The following applies: 0.01% by mass additive in feed for 3 days; n = 6, average ± standard deviation. The procedure:
Newly hatched broiler chicks (Ross Breeders Ltd.) were tested. A control group (=additive-free group), a GSSG addition group (0.01% by mass), and a GSH addition group (0.01% by mass) each consisting of 5 males and 5 females were set and fed with a feed composition for 3 days. […] At this timing, 2 males and 2 females in each group were slaughtered to collect blood and skeletal muscles. The gene expression levels of the MyoD family (myogenin, myostatin, and Pax7) were observed. […] Statistics were analyzed using a mixed model in consideration of a gender difference and an interaction between males and females. An ammonium salt was used as oxidized glutathione (GSSG). The GSSG contained 95.6% by mass of oxidized glutathione, and the content of reduced glutathione mixed therein was 0.1% by mass or less. […] A feed composition, for which the amount of oxidized glutathione (GSSG) added was set to 0.01% by mass, is described in Examination 1. A feed composition, for which the amount of reduced glutathione (GSH) added was set to 0.01% by mass, was prepared by adding 0.01% by mass of GSH, instead of 0.01% by mass of GSSG, to the GSSG-containing feed composition described in detail in Examination 1.

Assay [3] has as its system myogenin. The assay can be described thus: Examination 1: myogenin gene expression in superficial pectoral muscle (real-time PCR, relative to RPS9). In kind it is in vivo, broiler chicks of the Chunky breed (Ross 308). The following applies: 3 days old, GSSG addition group (0.01% or 0.1% feed), FIG. 1B, n=6. The source says:
FIGS. 1A to 1D illustrate graphs showing the expression of genes related to skeletal muscle cell differentiation in superficial pectoral muscles upon administration of each feed composition in Examination 1 (n=6). […] A relative value of the expression level of each factor is expressed as an average±standard deviation of values obtained by dividing the expression levels of each factor by the expression level of RPS9. Each different symbol denotes a significant difference in the […] multiple comparison test (P<0.05). Newly hatched broiler chicks of the Chunky breed (Ross 308, Ross Breeders Ltd.) were tested. […] Real-time PCR was performed by adding cDNA, a primer set, and other necessary reagents to wells of a 96-well PCR plate, preheating the plate using a thermal cycler at 95° C. for 3 minutes, followed by 35 cycles of steps of denaturation, annealing, and elongation in a repetitive manner, and measurement of […] after the elongation step for each cycle. The expression level of each gene was designated as a relative value obtained by dividing the determined amount of an amplification product of IGF-I, myostatin, MyoD, or myogenin by the amount of an amplification product of RPS9. […] The amount of GSSG used herein was determined in terms of the amount of free oxidized glutathione. […]
On the technique in general: Real-time PCR tracks product formation cycle by cycle.

For assay [4], the system named is myogenin. The assay can be described thus: Examination 4: myogenin gene expression in superficial pectoral muscle at 3 days old. In kind it is in vivo, broiler chicks. The following applies: 0.01% by mass additive in feed for 3 days, FIG. 3A, n=4. The procedure: FIGS. 3A to 3C illustrate graphs showing the expression of genes related to skeletal muscle cell differentiation in superficial pectoral muscles upon administration of each feed composition in Examination 4 (n=4). […] A relative value of the expression level of each factor is expressed as an average±standard deviation of values obtained by dividing the expression levels of each factor by the expression level of RPS9. Newly hatched broiler chicks (Ross Breeders Ltd.) were tested. A control group (=additive-free group), a GSSG addition group (0.01% by mass), and a GSH addition group (0.01% by mass) each consisting of 5 males and 5 females were set and fed with a feed composition for 3 days. […] At this timing, 2 males and 2 females in each group were slaughtered to collect blood and skeletal muscles. The gene expression levels of the MyoD family (myogenin, myostatin, and Pax7) were observed. […] Statistics were analyzed using a mixed model in consideration of a gender difference and an interaction between males and females. A method for determining gene expressions of the above factors in skeletal muscles is described above. An ammonium salt was used as oxidized glutathione (GSSG). The GSSG contained 95.6% by mass of oxidized glutathione, and the content of reduced glutathione mixed therein was 0.1% by mass or less. […]

oxidized glutathione [GSSG]: in assay [1] (40 days old), the Meat yield is on record as 42.1 ± 1.1 % by mass and the Weight amounted to 2214 ± 79 g. In assay [1] (until 40 days old), the “Feed conversion ratio (mass ratio)” value came to 1.52 ± 0.09. In assay [2], the “Weight, 14 days old” value is reported as 524.5 ± 37.0 g and the “Weight, 35 days old” value is given as 2164 ± 178 g. Further, in assay [3], the “myogenin expression level vs control group” value is on record as “significant decreases”. Moreover, the “myogenin expression level vs control group” value in assay [4] is “significantly decreased”.
